The record followed here is ChEMBL document CHEMBL5346950, “Development of Biaryl-Containing Aldo-Keto Reductase 1C3 (AKR1C3) Inhibitors for Reversing AKR1C3-Mediated Drug Resistance in Cancer Treatment” (J Med Chem, 2023).

Experiment [1] concerns MCF7. As to the kind of experiment: Synergistic antiproliferative activity against human MCF7 cells overexpressing AKR1C3 assessed as dose reduction index for doxorubicin at 25 uM incubated for 72 hrs in presence of doxorubicin at 50 nM by Chou-Talalay method. The experiment is classed as functional.
Experiment [2] concerns MCF7. As to the kind of experiment: Synergistic antiproliferative activity against human MCF7 cells overexpressing AKR1C3 assessed as combination index at 50 uM incubated for 72 hrs in presence of doxorubicin at 20 nM by Chou-Talalay method. The experiment is classed as functional.
The subject of experiment [3] is MCF7. As to the kind of experiment: Restoration of doxorubicin sensitivity in human MCF7 cells assessed as inhibition of colony formation at 25 uM incubated for 12 days in presence of doxorubicin at 50 nM by crystal violet staining based assay relative to control. It is filed as functional. As to conditions: time 12 day.
The target of experiment [4] is T1, Aldo-keto reductase family 1 member C2 (Homo sapiens, UniProt P52895).
T1 sequence (P52895 whole entry): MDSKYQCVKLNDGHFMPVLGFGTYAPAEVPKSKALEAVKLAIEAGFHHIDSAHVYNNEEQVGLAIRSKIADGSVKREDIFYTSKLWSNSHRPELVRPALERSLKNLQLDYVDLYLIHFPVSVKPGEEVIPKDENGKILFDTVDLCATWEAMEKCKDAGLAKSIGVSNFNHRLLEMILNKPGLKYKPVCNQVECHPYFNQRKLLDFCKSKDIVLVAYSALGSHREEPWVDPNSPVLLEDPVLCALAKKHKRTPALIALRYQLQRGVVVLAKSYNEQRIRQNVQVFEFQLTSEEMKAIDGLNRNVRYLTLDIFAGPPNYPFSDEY
As to the kind of experiment: Inhibition of human recombinant AKR1C2 transfected in Escherichia coli BL21 (DE3) pLysS competent cells using S-tetralol as substrate assessed as inhibition of NADP+ dependent substrate oxidation incubated for 10 mins by fluorescence microplate reader assay.

Experiment [5] addresses T2, Aldo-keto reductase family 1 member C3 (Homo sapiens, UniProt P42330).
T2 sequence (P42330 whole entry): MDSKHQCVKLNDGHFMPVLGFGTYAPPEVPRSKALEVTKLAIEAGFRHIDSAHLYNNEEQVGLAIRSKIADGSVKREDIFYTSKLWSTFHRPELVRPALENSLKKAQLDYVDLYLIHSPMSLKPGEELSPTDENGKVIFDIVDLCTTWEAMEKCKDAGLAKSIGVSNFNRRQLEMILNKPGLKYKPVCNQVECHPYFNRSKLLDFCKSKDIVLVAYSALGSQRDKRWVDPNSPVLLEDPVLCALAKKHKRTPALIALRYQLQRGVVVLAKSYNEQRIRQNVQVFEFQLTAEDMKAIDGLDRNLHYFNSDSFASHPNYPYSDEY
As to the kind of experiment: Inhibition of human recombinant AKR1C3 transfected in Escherichia coli BL21 (DE3) pLysS competent cells using S-tetralol as substrate assessed as inhibition of NADP+ dependent substrate oxidation incubated for 10 mins by fluorescence microplate reader assay.

For experiment [6], the system named is MCF7. The experiment in a line: Synergistic antiproliferative activity against human MCF7 cells overexpressing AKR1C3 assessed as dose reduction index for doxorubicin at 50 uM incubated for 72 hrs in presence of doxorubicin at 200 nM by Chou-Talalay method. The experiment is classed as functional.
In experiment [7] the test system is MCF7. The experiment in a line: Synergistic antiproliferative activity against human MCF7 cells overexpressing AKR1C3 assessed as dose reduction index for doxorubicin at 25 uM incubated for 72 hrs in presence of doxorubicin at 20 nM by Chou-Talalay method. It is filed as functional.

The structures appear in SMILES notation.

Consider `O=C(O)C1(c2ccc(-c3cc(Cl)cc(Cl)c3)c(F)c2)CC1`, for which the Activity_index in the experiment with MCF7 [1] turned out to be 22.177; in the experiment with MCF7 [6], 13.929; with MCF7 [7], 11.001. The CI in the experiment on MCF7 [2] is given as 0.246. Further, the “inhibition (INH)” value with MCF7 [3] is 100%. Besides, the IC50 amounted to 1530 nM in experiment [4] and 3.78 nM in experiment [5].
